Experimental data reported in patent US20240148821A1, “PHARMACEUTICAL USE OF CYCLIC PEPTIDE COMPOUND” (CHUGAI SEIYAKU KABUSHIKI KAISHA, priority 2021, published 2024).
Bridge positions count the residues as written; N and C are the ends. Square brackets hold non-standard residues; d marks the D form. Peptide text beside a SMILES is read from it. * marks the point of attachment. hPhe(3-Cl-4-CF3) = N[C@@H](CCc1ccc(C(F)(F)F)c(Cl)c1)C(=O)O; NMePhe(4-Me) = CN[C@@H](Cc1ccc(C)cc1)C(=O)O; NMeGly(cPent) = CN[C@H](C(=O)O)C1CCCC1; Phe(3-I) = N[C@@H](Cc1cccc(I)c1)C(=O)O; NMeCha = CN[C@@H](CC1CCCCC1)C(=O)O; N(CH2CH2)2CF2 = FC1(F)CCN(*)CC1; NMeE = CN[C@@H](CCC(=O)O)C(=O)O; NMeD = CN[C@@H](CC(=O)O)C(=O)O; NMeL = CN[C@@H](CC(C)C)C(=O)O; Azetidin(1-yl) = C1CN(*)C1; Morpholide = C1CN(*)CCO1; NMeA = CN[C@@H](C)C(=O)O; NMeAib = CNC(C)(C)C(=O)O; Piperidide = C1CCN(*)CC1; Pyrrolidide = C1CCN(*)C1; Ac5c = NC1(C(=O)O)CCCC1; Aze = O=C(O)[C@@H]1CCN1; X80 = FC1(F)CCCN(*)C1; Sar = CNCC(=O)O

Molecular target: protein-protein interaction between Kras and SOS1 (biotin-tagged human Kras loaded with GDP, His-tagged human SOS1) (Homo sapiens (Human), UniProt P01116, G12D)
Assay: Protein-protein interaction inhibition between Kras and SOS1 (KrasG12D-SOS PPI) using AlphaScreen;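 further: kras produced in E. coli, Ni-coupled donor beads and streptavidin acceptor beads, excitation 680 nm with emission detected at 520–620 nm via singlet oxygen transfer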
Type: biochemical
Details: not given

SMILES	IC50
CC[C@H](C)[C@@H]1NC(=O)[C@H](CC(C)C)N(C)C(=O)C[C@@H](C(=O)N2CCCC(F)(F)C2)N(C)C(=O)[C@H](CC(C)C)NC(=O)C(C)(C)N(C)C(=O)[C@H](Cc2ccc(OC)cc2)NC(=O)[C@H](Cc2cccc(I)c2)NC(=O)CN(C)C(=O)[C@H](Cc2ccc(C)cc2)N(C)C(=O)CN(C)C(=O)CN(C)C1=O [Compound 2099, (3S,9S,12S,18S,27S,30S,34S)-34-(3,3-difluoropiperidine-1-carbonyl)-12-[(3-iodophenyl)methyl]-3,30-diisobutyl-9-[(4-methoxyphenyl)methyl]-1,6,6,7,16,19,22,25,31-nonamethyl-27-[(1S)-1-methylpropyl]-18-(p-tolylmethyl) 1,4,7,10,13,16,19,22,25,28,31-undecazacyclotetratriacontane-2,5,8,11,14,17,20,23,26,29,32-undecone] ([NMeL]I[Sar][Sar][NMePhe(4-Me)][Sar][Phe(3-I)]Y(Me)[NMeAib]L[NMeD]-X80; lactam N-11)	25 nM
CC[C@H](C)[C@@H]1NC(=O)[C@H](CC(C)C)N(C)C(=O)C[C@@H](C(=O)N(C)C)N(C)C(=O)[C@H](C2CCCC2)N(C)C(=O)C2(CCCC2)NC(=O)[C@H](CC(=O)N2CCCCC2)N(C)C(=O)[C@H](CCc2ccc(C(F)(F)F)c(Cl)c2)NC(=O)CN(C)C(=O)[C@H](CC2CCCCC2)N(C)C(=O)[C@@H]2CCN2C(=O)[C@H](C)N(C)C1=O [Compound 2105] ([NMeL]I[NMeA][Aze][NMeCha][Sar][hPhe(3-Cl-4-CF3)][NMeD](Piperidide)[Ac5c][NMeGly(cPent)][NMeD]-NMe2; lactam N-11)	2.6 nM
CC[C@H](C)[C@@H]1NC(=O)[C@H](CC(C)C)N(C)C(=O)C[C@@H](C(=O)N(C)C)N(C)C(=O)[C@H](C2CCCC2)N(C)C(=O)C2(CCCC2)NC(=O)[C@H](CC(=O)N2CCOCC2)N(C)C(=O)[C@H](CCc2ccc(C(F)(F)F)c(Cl)c2)NC(=O)CN(C)C(=O)[C@H](CC2CCCCC2)N(C)C(=O)[C@@H]2CCN2C(=O)[C@H](C)N(C)C1=O [Compound 2109] ([NMeL]I[NMeA][Aze][NMeCha][Sar][hPhe(3-Cl-4-CF3)][NMeD](Morpholide)[Ac5c][NMeGly(cPent)][NMeD]-NMe2; lactam N-11)	1.8 nM

Same assay, conditions: AlphaScreen; biotin-tagged human Kras loaded with GDP, His-tagged human SOS1; read-out: KRAS G12D-SOS PPI IC50

SMILES	IC50
CC[C@H](C)[C@@H]1NC(=O)[C@H](CC(C)C)N(C)C(=O)C[C@@H](C(=O)N2CCC(F)(F)CC2)N(C)C(=O)[C@H](CC(C)C)NC(=O)C(C)(C)N(C)C(=O)[C@H](Cc2ccc(OC)cc2)NC(=O)[C@H](Cc2cccc(I)c2)NC(=O)CN(C)C(=O)[C@H](Cc2ccc(C)cc2)N(C)C(=O)CN(C)C(=O)CN(C)C1=O [Compound 2101, (3S,9S,12S,18S,27S,30S,34S)-34-(4,4-difluoropiperidine-1-carbonyl)-12-[(3-iodophenyl)methyl]-3,30-diisobutyl-9-[(4-methoxyphenyl)methyl]-1,6,6,7,16,19,22,25,31-nonamethyl-27-[(1S)-1-methylpropyl]-18-(p-tolylmethyl)-1,4,7,10,13,16,19,22,25,28,31-undecazacyclotetratriacontane-2,5,8,11,14,17,20,23,26,29,32-undecone] ([NMeL]I[Sar][Sar][NMePhe(4-Me)][Sar][Phe(3-I)]Y(Me)[NMeAib]L[NMeD]-{N(CH2CH2)2CF2}; lactam N-11)	53 nM
CC[C@H](C)[C@@H]1NC(=O)[C@H](CC(C)C)N(C)C(=O)C[C@@H](C(=O)N2CCOCC2)N(C)C(=O)[C@H](C2CCCC2)N(C)C(=O)C2(CCCC2)NC(=O)[C@H](CCC(=O)N2CCC2)N(C)C(=O)[C@H](CCc2ccc(C(F)(F)F)c(Cl)c2)NC(=O)CN(C)C(=O)[C@H](CC2CCCCC2)N(C)C(=O)[C@@H]2CCN2C(=O)[C@H](C)N(C)C1=O [Compound 2103] ([NMeL]I[NMeA][Aze][NMeCha][Sar][hPhe(3-Cl-4-CF3)][NMeE](Azetidin(1-yl))[Ac5c][NMeGly(cPent)][NMeD]-Morpholide; lactam N-11)	8.3 nM
CC[C@H](C)[C@@H]1NC(=O)[C@H](CC(C)C)N(C)C(=O)C[C@@H](C(=O)N2CCOCC2)N(C)C(=O)[C@H](C2CCCC2)N(C)C(=O)C2(CCCC2)NC(=O)[C@H](CCC(=O)N2CCCC2)N(C)C(=O)[C@H](CCc2ccc(C(F)(F)F)c(Cl)c2)NC(=O)CN(C)C(=O)[C@H](CC2CCCCC2)N(C)C(=O)[C@@H]2CCN2C(=O)[C@H](C)N(C)C1=O [Compound 2104] ([NMeL]I[NMeA][Aze][NMeCha][Sar][hPhe(3-Cl-4-CF3)][NMeE](Pyrrolidide)[Ac5c][NMeGly(cPent)][NMeD]-Morpholide; lactam N-11)	10 nM
CC[C@H](C)[C@@H]1NC(=O)[C@H](CC(C)C)N(C)C(=O)C[C@@H](C(=O)N(C)C)N(C)C(=O)[C@H](C2CCCC2)N(C)C(=O)C2(CCCC2)NC(=O)[C@H](CC(=O)N(C)C)N(C)C(=O)[C@H](CCc2ccc(C(F)(F)F)c(Cl)c2)NC(=O)CN(C)C(=O)[C@H](CC2CCCCC2)N(C)C(=O)[C@@H]2CCN2C(=O)[C@H](C)N(C)C1=O [Compound 2106, (3S,6S,9S,13S,16S,22S,25S,31S,34S)-25-[2-[3-chloro-4-(trifluoromethyl)phenyl]ethyl]-31-(cyclohexylmethyl)-16-cyclopentyl-22-[2-(dimethylamino)-2-oxo-ethyl]-9-isobutyl-N,N,3,4,10,14,17,23,29,32-decamethyl-6-[(1S)-1-methylpropyl]-2,5,8,11,15,18,21,24,27,30,33-undecaoxo-spiro[1,4,7,10,14,17,20,23,26,29,32-undecazabicyclo[32.2.0]hexatriacontane-19,1-cyclopentane]-13-carboxamide] ([NMeL]I[NMeA][Aze][NMeCha][Sar][hPhe(3-Cl-4-CF3)][NMeD](NMe2)[Ac5c][NMeGly(cPent)][NMeD]-NMe2; lactam N-11)	2 nM
CC[C@H](C)[C@@H]1NC(=O)[C@H](CC(C)C)N(C)C(=O)C[C@@H](C(=O)N2CCOCC2)N(C)C(=O)[C@H](C2CCCC2)N(C)C(=O)C2(CCCC2)NC(=O)[C@H](CCC(=O)N2CCOCC2)N(C)C(=O)[C@H](CCc2ccc(C(F)(F)F)c(Cl)c2)NC(=O)CN(C)C(=O)[C@H](CC2CCCCC2)N(C)C(=O)[C@@H]2CCN2C(=O)[C@H](C)N(C)C1=O [Compound 2107] ([NMeL]I[NMeA][Aze][NMeCha][Sar][hPhe(3-Cl-4-CF3)][NMeE](Morpholide)[Ac5c][NMeGly(cPent)][NMeD]-Morpholide; lactam N-11)	4.8 nM
CC[C@H](C)[C@@H]1NC(=O)[C@H](CC(C)C)N(C)C(=O)C[C@@H](C(=O)N2CCOCC2)N(C)C(=O)[C@H](C2CCCC2)N(C)C(=O)C2(CCCC2)NC(=O)[C@H](CCC(=O)N(C)C)N(C)C(=O)[C@H](CCc2ccc(C(F)(F)F)c(Cl)c2)NC(=O)CN(C)C(=O)[C@H](CC2CCCCC2)N(C)C(=O)[C@@H]2CCN2C(=O)[C@H](C)N(C)C1=O [Compound 2108, 3-[(3S,6S,9S,13S,16S,22S,25S,31S,34S)-25-[2-[3-chloro-4-(trifluoromethyl)phenyl]ethyl]-31-(cyclohexylmethyl)-16-cyclopentyl-9-isobutyl-3,4,10,14,17,23,29,32-octamethyl-6-[(1S)-1-methylpropyl]-13-(morpholine-4-carbonyl)-2,5,8,11,15,18,21,24,27,30,33-undecaoxo-spiro[1,4,7,10,14,17,20,23,26,29,32-undecazabicyclo[32.2.0]hexatriacontane-19,1′-cyclopentane]-22-yl]-N,N-dimethyl-propanamide] ([NMeL]I[NMeA][Aze][NMeCha][Sar][hPhe(3-Cl-4-CF3)][NMeE](NMe2)[Ac5c][NMeGly(cPent)][NMeD]-Morpholide; lactam N-11)	7.9 nM
